Usually GI50 stands for the concentration at which growth is held to half of that of the control.

The source of these data is US20050222418A1, “Novel tyloindicines and related processes, pharmaceutical compositions and methods” (priority 2002, published 2005).

Data set [1] relates to NF-κB mediated transcription. Description: Firefly luciferase reporter assay in HepG2 cells. Format: cell-based, human. The conditions noted are these: HepG2 cells transfected with pBIIX-luc, TNFa stimulation. The protocol:
HepG2 cells were transiently transfected with firefly luciferase reporter vectors pMyc-TA-luc, pE2F-TAO-luc, pAP1-luc, pCRE-luc, or pBIIX-luc (containing two tandemly repeated NF-kB binding sites), respectively, along with internal control vector phRL-luc which is a promoterless renilla luciferase reporter vector. The day after transfection, cells were pretreated with increasing concentrations of 3500 for 1 h, then cells were stimulated with serum for 24 h, or TPA, forskolin or TNFa for 6 h Firefly and renilla uciferase activities were measured using Promega's dual-luciferase assay kit Data presented is firefly luciferase activity.
HepG2 cells were plated at a density of 2×10^4 per well (48-well plate) and transfected with 0.2 μg of firefly luciferase reporter vector pMyc-TA-luc, pE2F-TA-luc, pAP1-luc, pCRE-luc, or pBIIX-luc (containing two tandemly repeated NF-κB binding sites) respectively, along with internal control vector promoter-less renilla luciferase reporter vector phRL (Promega), using FuGENE 6™ transfection reagent according to the manufacturer's instructions. Cell extracts were prepared and luciferase activity was measured using a Dual-luciferase (firefly and renilla luciferase) assay kit according to the manufacturer's instructions.

In data set [2] the test system is KB cells and its drug resistant cells. In words: Cross resistance studies in drug resistant cell lines. Conditions: cells resistant to VP-16, VCR, CPT or DOX. Format: cell-based, human. The text has this: (§1) FIG. 1 illustrates the following referred to in the Examples herein: • “A. Chemical structure” provides the structural formulae for (+)-(S)-tylophorine (also referred to herein as compound “III-2” and DCB-3500); DCB-3501; “compound II-3a of FIG. 15”; and, in FIGS. 18-22, as […]); DCB-3502 (also referred to herein as “compound II-2); and DCB-3503 (also referred to herein as “NSC 716802”; “compound II-3b” of FIG. 15; and “ZH-152”). • “Table 1, B and C” provides EC50 and LD50 values for use of DCB-3500, DCB-3501, DCB-3502, and DCB-3503 against KB and HepG2 cancer cell lines resistant to various anticancer drugs, including VP-16 (etoposide), VCR (vincristine), CPT (camptothecin), and DOX (doxorubicin). • “Table 2 A, and B, and Table 3” illustrate that KB and HepG2 cancer cell lines are inhibited by the compounds of the instant invention. […] At the end of treatment, cells were washed, resuspended in PBS and stained with propidium iodide containing Rnase A for flow cytometric analysis. Data were analyzed using Modfit software.
FIG. 18 describes cross resistance studies in KB cell lines using DCB-3503.
(§2) Cells (1×10^4/well) were plated in 24-well plates. After 24 h, cells were treated with drugs for three generation times, then fixed and stained with 0.5% methylene blue in 50% ethanol for 2 h, followed by washing with tap water to remove excess color. Plates were dried and then resuspended in 1% sarkosyl, rotated at room temperature for 3 h. Cell growth was quantitated from the amount of methylene blue absorbed to the cells as measured by a spectrophotometer (Molecular Dynamics) at 595 nm. All experiments were performed in triplicate wells and were repeated at least three times. (see FIG. 1, Table 1B and Table 1C).

In the next data set the test system is KB cells. Description: Cell cycle analysis (flow cytometry), KB. Format: cell-based, human. The conditions noted are these: 24 h treatment.
Description: as §1
(§3) KB and HepG2 cells were treated for 24 h with increasing concentrations of DCB-3500 and DCB-3503. At the end of treatment, cells were trypsinized, and the resulting cell suspensions were centrifuged at 1000 rpm for 5 min. The cells were fixed overnight in 70% ethanol at 4° C., centrifuged at 1000 rpm for 5 min, the pellets were washed twice with ice-cold PBS. Cell pellets were then resuspended in 0.5 ml PBS containing 50 μg/ml propidium iodide (Sigma-Aldrich) and 100 μg/ml RNase A (Sigma-Aldrich), incubated at 37° C. for 30 min, and then analyzed by FACScan using Cell Quest software (Becton Dickinson Labware, Franklin Lakes, N.J.). Data were analyzed using Modfit LT version 3.1 software (Verity Software House, Topsham, Me.) for cell cycle profile. (FIG. 1, Table 3)
For orientation: A flow cytometer gives signals particle by particle.

In another data set the test system is HepG2 cells. In words: Cell cycle analysis (flow cytometry), HepG2. Conditions: 24 h treatment. It counts as cell-based, human.
Description: as §1, §3

For data set [3], the system named is human cell-line tumor panel. Description: NCI human cell-line tumor panel (DTP screen). It counts as cell-based. Conditions: for antitumor activity in NCI in vitro screen: sixty-panel in vitro screen against human-derived tumors; for LC50 for several melanoma and lung cancer cell lines versus the other cell lines: DTP panel; for ranking by average concentration required for total growth inhibition (TGI): screen of 33,744 compounds, fifty-four cell lines. The source says: The ranking system was based on the average concentration required to yield a total growth inhibition (TGI) in the numbers of cell lines of the screen (54 for tylo F and tylo G). […] In fact, for many cell lines, the data were off scale; designated as <10^−10 M.

In data set [4] the test system is KB (head and neck cancer). Description: In vitro cell culture growth inhibition, KB. Format: cell-based, human. The protocol: (§4) Compound II-3 (NSC-716802) was tested in in vitro cell culture studies.
as §2

In a further data set the test system is HepG2 (hepatocarcinoma). In words: In vitro cell culture growth inhibition, HepG2. It counts as cell-based, human. The protocol:
as §4, §2

Another data set relates to KB and HepG2 cells. Description: Clonogenic assay. Format: cell-based, human. Conditions: 24 h exposure, colonies counted after 8 generations. The protocol:
FIG. 19 illustrates the effect of DCB-3503 (ZH-152) in clonogenic assays. As depicted, cells were seeded at 5×10^4 per well, then DCB-3503 was added at concentrations ⅓, 1× and 3× the IG50. After a 24 h treatment, the cells were recounted and seeded into a fresh 6 well plate at 200 cells per well. After 8 generations of time the colonies were stained with methylene blue and counted. The cloning efficiency for HepG2 was 10% and for KB was 94%. Both cell lines were exposed to DCB-3503 with the concentration indicated for 24 h. The loss of clonegenic efficiency of cells post drug treatment is shown. […] This supports the previous observation using a different procedure.
They were then grown in the absence of the drug. After eight generations, the colonies were stained and counted.
Cells (5×10^4/well) were plated in 6-well plates. After 24 h, cells were treated with drugs for an additional 24 h. Cells were then trypsinized, counted, and cell viability was determined by trypan blue staining, 200 trypan blue negative cells were plated in triplicate in 6-well plates and grown for eight to ten generation times, then fixed and stained with 0.5% methylene blue in 50% ethanol for 1 h, after plates were washed and dried, the colonies were counted. (FIG. 1, Table 1C).

The next data set has as its system HepG2 tumor. Description: HepG2 tumor growth inhibition in nude mice. It counts as in vivo. Conditions: 10 mg/kg ip once daily for 5 days; for tumor growth inhibition: HepG2 tumor-bearing nude mice. The source says:
FIG. 22 illustrates toxicity and tumor growth inhibition studies using DCB-3503.
Four-week-old male NCR-nude mice were obtained from Taconic, and acclimated to laboratory conditions 1 week before tumor implantation. Human HepG2 tumor xenografts were established by injecting subcutaneously 2×10^6 HepG2 cells. […] Tumor weight was estimated by using the equation: Length of tumor×(wide of tumor/2)^2. (FIG. 1(a))

A short description of data set [5]: Toxicity studies in C57BL/6 mice. It counts as in vivo. The source says: FIG. 21 illustrates toxicity studies of DCB-3503 in C57BL/6 mice.
Another data set has as its system SK-MEL-2. In words: In vitro cell culture growth inhibition, SK-MEL-2. It counts as cell-based, human. The protocol:
as §4, §2

Take `COc1cc2c3c(c4cc(OC)c(OC)cc4c2cc1OC)CN1CCCC1C3` (stereo in doubt) [DCB-3500, (+)-(S)-tylophorine]: in data set [1], the “activity against NF-κB mediated transcription” value is “potent activity”. Also, the “cross-resistance with conventional anticancer drugs” value (“cross-resistance” for short) in [2] is reported as “no cross-resistance”. Besides, the “effect on cell cycle progression (S phase)” value with KB cells is given as “induce S phase accumulation”; in the data set on HepG2 cells, “not in HepG2 cells”.
On to `COc1cc2c3c(c4cc(OC)c(OC)cc4c2cc1OC)[C@@H](O)[C@@H]1CCCN1C3` [DCB-3501], for which, in [3], the “antitumor activity in NCI in vitro screen” value (shortened to “antitumor activity in NCI”) is “extraordinary antitumor activity”. Moreover, in [2], the “cross-resistance” value is recorded as “no cross-resistance”.
Regarding `COc1cc2c(cc1OC)-c1cc(OC)c(OC)cc1[C@H]1CN3CCCC3C=C21` (stereo partly drawn) [II-2, (S)-2,3,6,7-Tetramethoxy-8b,9,10,11,12,12a-hexahydro-9a-aza-cyclopenta[b]-triphenylene], the “potency relative to compound II-3 (times more)” value (in [4] (KB cell growth in culture); with HepG2 (hepatocarcinoma) (HepG2 cell growth in culture)) was 3 to 5 in each case. Besides, the “activity against NF-κB mediated transcription” value in [1] is listed as “potent activity”. The entries for the “antitumor activity in NCI” value in data set [3] and in [3] (listed as NSC-717335) were “active” and “potent antitumor activity”, respectively. In data set [2], the “cross-resistance” value is “no cross-resistance”.
In the case of `COc1cc2c3c(c4cc(OC)c(OC)cc4c2cc1OC)[C@H](O)[C@@H]1CCCN1C3` [II-3, (12S,13S)-2,3,6,7-Tetramethoxy-9,10,11,12,12a,13-hexahydro-9a-aza-cyclopenta[b]triphenylen-13-ol], the “loss of clonogenic efficiency, HepG2 versus KB” value in the data set with KB and HepG2 cells is “more sensitive”; in the data set with KB and HepG2 cells (listed as DCB-3503) it was “HepG2 is much more sensitive than KB cells”. In addition, the weight loss result in the data set on HepG2 tumor (HepG2 tumor-bearing mice) was “without significant weight loss”. In addition, the tumor growth inhibition entry is “profound antitumor effect” in the data set on HepG2 tumor (10 mg/kg) and “potent inhibitory activity” in the data set on HepG2 tumor (listed as DCB-3503, 10 mg/kg). Besides, the figures for the GI50 (in [4] (KB); in the data set with SK-MEL-2; with HepG2 (hepatocarcinoma) (HepG2)) were 0.2 µM, 0.16 µM and 0.06 µM, respectively. In addition, the acute toxicity entry in data set [5] is “manageable”. In addition, in [5], the “toxicity (dose causing weight loss)” value was 10 mg/kg. For the same molecule, the “activity against NF-κB mediated transcription” value in [1] was “potent activity”. Further, the “antitumor activity in NCI” value in data set [3] was “active”; in [3] (listed as 3503), “extraordinary antitumor activity”; in [3] (listed as NSC-716802), “potent antitumor activity”. In addition, the “cross-resistance” value in [2] is reported as “sensitive”; in data set [2] (listed as 3503) it was “no cross-resistance”; in [2] (listed as ZH-152), “still sensitive”. Moreover, the “effect on cell cycle progression (S phase)” value in the data set on KB cells was “inhibition at targets that are responsible for S-phase progression”; in the data set on KB cells (listed as 3503) it was “induce S phase accumulation”; in the data set on KB cells (listed as DCB-3503), “slows down the cell progress in S-phase”; with HepG2 cells, “inhibition at targets that are responsible for S-phase progression”; in the data set on HepG2 cells (listed as 3503), “not in HepG2 cells”; in the data set with HepG2 cells (listed as DCB-3503), “slows down the cell progress in S-phase”.
For the molecule `COc1ccc(C2=C[C@]3(O)CCCN3C[C@@H]2c2ccc(OC)c(OC)c2)cc1` [tylo F, tyloindicine F], in data set [3], the “LC50 for several melanoma and lung cancer cell lines versus the other cell lines” value is “two orders of magnitude less”; the “ranking by average concentration required for total growth inhibition (TGI)” value is listed as “most potent anticancer agents examined”.
The matching figures for `COc1cc2c(cc1OC)-c1cc(OC)c(OC)cc1[C@H]1CN3CCC[C@@]3(O)C=C21` [tylo G, tyloindicine G]: “two orders of magnitude less” and “most potent anticancer agents examined”.
Regarding `COc1cc2c(cc1OC)[C@H]1CN3CCC[C@H]3C=C1c1ccc(OC)c(O)c1-2` [tylo H, tyloindicine H], the “antitumor activity in NCI” value in data set [3] is recorded as “active”.
Consider `COc1ccc(C2=CN3CCC[C@H]3C=C2c2cc(O)c(OC)c(OC)c2)cc1OC` [tylo I, tyloindicine I], for which, in [3], the “antitumor activity in NCI” value is given as “active”.
